Measured values reported in patent publication US6812222B1, “Biocompatible aqueous solution for use in continuous ambulatory peritoneal dialysis” (priority 1995, dated 2004).
Read-outs that look alike come from different tables or passages of the source. Each block holds one molecule with its values, some of them ahead of it.

Key:
human mesothelial cells = test: Stimulation of hyaluronic acid in tissue culture of human mesothelial cells; format: cell-based
[1] = tested on: chemically induced inflammatory bowel reaction with bowel wall thickening or fibrosis; test: Colon fibrosis (weight of 8 cm of colon) after intrarectal TNB/ethanol in rats; format: in vivo; conditions: for Colon fibrosis (as measured by weight of 8 cm of colon), mean ± SEM: rats
Description: In animal models of inflammatory bowel disease the colon becomes fribrotic, as does the peritoneum as a result of chronic intraperitoneal dialysis. […] It is to be expected that in a similar manner NAG will prevent the development of fibrosis of the peritoneum in CAPD patients. [table]

peritoneal membrane = format: in vivo, rats; conditions: for Hyaluronic Acid in Dialysate Fluid / Mass Transfer Area Coef for Urea / Peritoneal Clearance of Urea: 4 hours dwell; for Net Ultrafiltration: pH 7.35-7.4, 4 hours dwell, 20 mL infused
Description: In experiments in which rats were dialyzed for 4 hours with Hanks Balances salt solution with either glucose or N-acetylglucosamine added at a concentration of 75 mM or 214 mM, at a pH of 7.35-7.4. The net utrafiltration was calculated as the difference between the drained volume of dialysate after 4 hours dwell time in the peritoneal cavity and the infused volume (20 mL) of the dialysis fluid. As well, the concentration of urea and creatinine in the blood and the dialysis fluid were measured. Permeability of the peritoneal membrane to urea and creatinine, expressed as the Mass Transfer Area Coefficient which was calculated according to the method of Krediet et al (Blood Purif 4: 194, 1986). […] In addition, the inclusion of NAG in the dialysate fluid stimulated the synthesis of hyaluronic acid, as shown by the more than 100% increase in amount of hyaluronic acid secreted in the dialysis fluid compared to the glucose treated rats.

[2] = 7.5% solution; cited from earlier work
[3] = versus glucose, rats dialyzed 4 hours

Albumin or total protein loss into the dialysis fluid (in words) (peritoneal membrane; rat, in vivo): without increasing
Molecule: CC(=O)N[C@H]1C(O)O[C@H](CO)[C@@H](O)[C@@H]1O (stereo partly shown) [NAG, N-acetylglucosamine]
Stimulation of hyaluronic acid (human mesothelial cells): stimulation of hyaluronic acid by N-acetylglucosamine was confirmed
Colon fibrosis (as measured by weight of 8 cm of colon), mean ± SEM ([1]; 25 mg NAG/kg BWt intrarectal 1 hr before TNB/EtOH): 1.669 ± 0.142 gm
Colon fibrosis (as measured by weight of 8 cm of colon), mean ± SEM ([1]; 50 mg NAG/kg BWt intrarectal 1 hr before TNB/EtOH): 1.339 ± 0.155 gm
Colon fibrosis (as measured by weight of 8 cm of colon), mean ± SEM ([1]; 100 mg NAG/kg BWt intrarectal 1 hr before TNB/EtOH): 1.150 ± 0.068 gm
Fibrotic reaction to the inflammatory stimulus ([1]; solution of NAG administered into the bowel of rats): reduces in a dose dependent manner
Hyaluronic Acid in Dialysate Fluid (peritoneal membrane; 75 mM in dialysis fluid): 226 ± 93 µg/L
Mass Transfer Area Coef for Urea (peritoneal membrane; 75 mM in dialysis fluid): 0.287 ± 0.13 mL/min
Peritoneal Clearance of Urea (peritoneal membrane; 75 mM in dialysis fluid): 18.4 ± 2.1 mL/min
Net Ultrafiltration (peritoneal membrane; 75 mM in dialysis fluid): −0.11 ± 1.6 mL/4 hrs
Hyaluronic Acid in Dialysate Fluid (peritoneal membrane; 214 mM in dialysis fluid): 217 µg/L
Mass Transfer Area Coef for Urea (peritoneal membrane; 214 mM in dialysis fluid): 0.262 ± 0.15 mL/min
Peritoneal Clearance of Urea (peritoneal membrane; 214 mM in dialysis fluid): 30.0 mL/min
Net Ultrafiltration (peritoneal membrane; 214 mM in dialysis fluid): 14.45 mL/4 hrs
Increase in amount of hyaluronic acid secreted in the dialysis fluid (peritoneal membrane; compared to the glucose treated rats): more than 100%
Net ultrafiltration (in words) (peritoneal membrane; [3]): statistically significant increase
Peritoneal clearance of urea (in words) (peritoneal membrane; [3]): statistically significant increase

Molecule: Icodextrin
Osmolality [2]: 282 mOsm/kg
pH of solution [2]: 5.3
